Experimental data: US10624948B2, “Use of cell-permeable peptide inhibitors of the JNK signal transduction pathway for the treatment of various diseases” (Xigen Inflammation Ltd., priority 2013, dated 2020)

Key:
[1] = Phase I pharmacokinetics, single intravenous infusion; details: human, in vivo
Protocol: The primary objective of the study was to assess the safety and tolerability of XG-102 following intravenous (iv) infusion of single escalating doses of XG-102 to healthy male volunteers. The secondary objective of the study was to assess the pharmacokinetics of XG-102 following iv infusion of single escalating doses of XG-102 to healthy male volunteers. Doses were administered as a 60 minute iv infusion. For control purposes, placebo iv infusion was administered to control subjects. This was a single-centre, randomized, double blind, placebo controlled, ascending single dose, sequential group study. […] Screening was performed in the 3-week period prior to dosing. Dosing occurred on Day 0 for each subject. […] Data for all subjects were included in the safety analyses; data for all subjects who received XG-102 were included in the pharmacokinetic analyses.

[2] = test system: HCT 116 human colon tumor; assay: Orthotopic HCT 116 human colon tumors in SCID mice; assay type: in vivo
Protocol: The objective of this study was to determine the effect of XG-102 on the growth of HCT 116 human colon tumor orthotopically xenografted in SCID mice.
For XG-102 administration the required amount of XG-102 was dissolved in the vehicle. The formulation was prepared according to the procedure detailed below. Concentrations were calculated and expressed taking into account test item purity and peptide content (multiplier coefficient was 74.6%). […] Diluted solutions were maintained on ice until use. Unused material was discarded. XG-102 was injected once daily at 0.1 and 1 mg/kg/inj. for a total of fourteen consecutive administrations (Q1D×14). The routes of substance administrations were: injected subcutaneously (SC) at 5 ml/kg/inj., administered per os (PO) to mice by oral gavage via a canula at 5 ml/kg/adm. The injection and administration volumes were adapted, according to the daily individual body weight of mice.
Twenty four to Forty-eight hours before tumor induction, 5 SCID mice were irradiated with a γ-source (1.8 Gy, Co^60, INRA, Dijon, France). Ten millions (10^7) HCT 116 cells suspended in 200 μl of RPMI medium were subcutaneously injected in the right flank of the 5 female SCJD mice. When tumors reached 1000-2000 mm^3, mice were sacrificed. […]
Mice were sacrificed at D26. […] Invasion of liver by tumor nodules was evaluated macroscopically. […]

[3] = test system: Primary cultured macrophages; assay type: cell-based
Protocol: FIG. 24 Primary cultured macrophages were incubated with XG-102 (SEQ ID NO: 11) and extensively washed.

[4] = test system: db/db mice; details: mouse, in vivo, sc, 10 mg/kg
From the text: i) Animals • A total of twenty (20) male db/db mice (8 weeks old) were obtained from Charles River (Germany). Upon arrival, animals were group housed (n=6-7/group) and offered regular rodent chow (Altromin standard #1324 chow; C. Petersen, Ringsted, Denmark) and water ad libitum unless otherwise stated. The mice were housed under a 12:12 L/D cycle (lights on at 4:00 and lights off at 16:00) and in temperature and humidity controlled rooms.
ii) Groups and Randomization • On day −4, mice were randomized according to blood glucose level (fasted; blood glucose measured on Biosen S line analyzer (EKF diagnostic, Germany) to participate in one of the following drug treatment groups (n=6): • 1) Vehicle control, S.C. (physiological saline) • 2) XG-102 (SEQ ID NO: 11); 1 mg/kg; s.c. • 3) XG-102 (SEQ ID NO: 11); 10 mg/kg; s.c • All doses listed were calculated for the free-base. […] All compounds were administered sub-cutaneously (s.c.) in a volume of 3 ml/kg. The formulation instructions for vehicle control and XG-102 (SEQ ID NO: 11) were as follows: • First, XG-102 (SEQ ID NO: 11) was dissolved in the vehicle. […]
i) Blood Glucose • Blood glucose was measured from 7 hour fasted animals 6 hours post dosing by collection of 10 μl blood samples from the tail-vein in hematocrite tubes and subsequent analysis on a Biosen s-line analyzer (EKE-diagnostic; Germany).

CC(C)C[C@@H](NC(=O)[C@@H](Cc1ccccc1)NC(=O)[C@H]1CCCN1C(=O)[C@@H](CCC(N)=O)NC(=O)[C@H](NC(=O)[C@H]1CCCN1C(=O)[C@@H](CCCNC(=N)N)NC(=O)[C@@H](CO)NC(=O)[C@@H](CCC(N)=O)NC(=O)[C@H](N)CC(=O)O)C(C)C)C(=O)N[C@H](CC(N)=O)C(=O)N[C@H](CC(C)C)C(=O)N[C@@H](C(=O)N[C@@H](C(=O)N1CCC[C@@H]1C(=O)N[C@H](CCCNC(=N)N)C(=O)N[C@H](CCCCN)C(=O)N1CCC[C@@H]1C(=O)N[C@H](CCCNC(=N)N)C(=O)N1CCC[C@@H]1C(=O)N1CCC[C@@H]1C(=O)N[C@H](CCCNC(=N)N)C(=O)N[C@H](CCCNC(=N)N)C(=O)N[C@H](CCCNC(=N)N)C(=O)N[C@H](CCC(N)=O)C(=O)N[C@H](CCCNC(=N)N)C(=O)N[C@H](CCCNC(=N)N)C(=O)N[C@H](CCCCN)C(=O)N[C@H](CCCCN)C(=O)N[C@H](CCCNC(=N)N)C(=O)NCC(=O)O)[C@H](C)O)[C@H](C)O [XG-102]
AUCextrap ([1]; 10 ug/kg): 34.1% | AUCextrap ([1]; 40 ug/kg): 6.7% | AUCextrap ([1]; 80 ug/kg): 2.9% | MBWC at D−2 ([2]; PO 0.1 mg/kg/adm.): 7.1±4.6% | lethality after surgery vs vehicle treated group ([2]; mouse, in vivo): did not significantly modify lethality compared to vehicle treated group | incorporation into primary macrophages [3]: strongly incorporated into primary macrophages | reaction at s.c. injection site [4]: nodular fibrosis was observed in the subcutaneous tissue
